The results in this text go back to ChEMBL document CHEMBL4219268, “Synthesis and evaluation of N-(4-benzylphenyl)piperazines as VGF inducers” (Bioorg Med Chem Lett, 2018).

Data set [1] has as its target CYP3A4 (Homo sapiens, UniProt P08684). Kind of data set: Inhibition of CYP3A4 in human liver microsomes using testosterone as substrate assessed as residual activity at 10 uM preincubated for 30 mins followed by substrate addition measured after 10 mins in presence of NADPH by LC-MS/MS analysis. The class given is ADME. As to conditions: probe testosterone, read-out: Activity. A general note: Liver microsomes are a subcellular fraction often used to study metabolism.

Data set [2] concerns SH-SY5Y. Kind of data set: Induction of VGF gene expression in human SH-SY5Y cells at 3 uM after 24 hrs by qRT-PCR analysis relative to SUN N8075. Type of data set: functional. (In general: Quantitative PCR measures a nucleic acid by following its amplification.)
In data set [3] the test system is SH-SY5Y. Kind of data set: Cytoprotective activity against tunicamycin-induced ER stress in human SH-SY5Y cells assessed as cell viability at 3 uM preincubated for 1 hr followed by tunicamycin addition measured after 48 hrs by WST-8 assay relative to SUN N8075. The class given is functional. The following applies: read-out: Activity.
The nature of data set [4]: Drug metabolism in human liver microsomes assessed as metabolic rate per mg protein at 1 uM measured at 3 to 30 mins by LC-MS/MS analysis. Type of data set: ADME, microsome.
Data set [5] concerns SH-SY5Y. Kind of data set: Cytoprotective activity against tunicamycin-induced ER stress in human SH-SY5Y cells assessed as cell viability at 3 uM preincubated for 1 hr followed by tunicamycin addition measured after 48 hrs by WST-8 assay (reference value: 45 +/- 6.6%). As to conditions: read-out: Activity. Type of data set: functional. (In general: Tetrazolium assays rely on reduction of a dye to a coloured formazan, in cell work by metabolically active cells.)

Data set [6] relates to SH-SY5Y. In words: Induction of VGF gene expression in human SH-SY5Y cells at 3 uM after 24 hrs by qRT-PCR analysis relative to control. Type of data set: functional.

A value given as a limit tells only on which side of the number the result lay.

CYP3A4, sequence (P08684 whole entry): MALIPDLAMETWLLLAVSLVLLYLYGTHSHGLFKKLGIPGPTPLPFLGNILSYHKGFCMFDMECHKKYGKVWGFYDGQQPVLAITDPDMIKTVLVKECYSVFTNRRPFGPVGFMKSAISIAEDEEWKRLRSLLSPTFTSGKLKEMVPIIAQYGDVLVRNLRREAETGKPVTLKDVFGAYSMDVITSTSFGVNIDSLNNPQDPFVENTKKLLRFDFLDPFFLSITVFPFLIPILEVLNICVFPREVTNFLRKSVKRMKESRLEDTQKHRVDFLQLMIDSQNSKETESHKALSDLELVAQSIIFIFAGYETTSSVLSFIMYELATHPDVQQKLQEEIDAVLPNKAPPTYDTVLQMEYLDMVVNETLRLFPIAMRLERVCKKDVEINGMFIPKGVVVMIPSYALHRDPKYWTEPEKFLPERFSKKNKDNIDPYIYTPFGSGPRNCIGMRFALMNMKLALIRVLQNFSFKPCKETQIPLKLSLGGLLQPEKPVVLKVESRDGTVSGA

On to `Cl.Cl.Cl.Fc1ccc(Cc2ccc(N3CCN(CC(F)COc4ccncc4)CC3)cc2)cc1` (stereo unspecified), for which the activity at 10 min, 10 µM in data set [1] came out at 101%. This compound also showed an Activity in data set [2] of 13%. Besides, the viability at 3 µM in data set [3] was determined as 13%. Besides, the Drug metabolism in data set [4] is on record as below 10 pmol/min.

Turning to `Cl.Cl.Cl.Fc1ccc(Cc2ccc(N3CCN(CC(F)COc4ccc5ncccc5c4)CC3)cc2)cc1` (stereo unspecified), the activity at 10 min, 10 µM in data set [1] came out at 82%. The Activity in data set [2] stood at 77%. Further, in data set [3], the viability at 3 µM was determined as 89%. In addition, in data set [4], the Drug metabolism came out at 79 pmol/min.

For `Cc1cc(OCC(F)CN2CCN(c3ccc(Cc4ccc(F)cc4)cc3)CC2)cc(C)n1.Cl.Cl.Cl` (stereo unspecified), in data set [1], the activity at 10 min, 10 µM was found to be 67%. This compound also came in with an Activity in data set [2] of 79%. In addition, in data set [3], the viability at 3 µM was 82%. Moreover, in data set [4], the Drug metabolism turned out to be 41 pmol/min.

On to `NC(=O)c1ccc(OCC(F)CN2CCN(c3ccc(Cc4ccc(F)cc4)cc3)CC2)cc1` (stereo unspecified), for which, in data set [1], the activity at 10 min, 10 µM worked out at 76%. For the same compound, the Activity in data set [2] was found to be 20%. Moreover, in data set [3], the viability at 3 µM came out at 21%. For the same compound, the Drug metabolism in data set [4] came to 34 pmol/min.

For `Cl.Cl.Cl.Fc1ccc(Cc2ccc(N3CCN(CC(F)(F)COc4ccc5ncccc5c4)CC3)cc2)cc1`, the activity at 10 min, 10 µM in data set [1] turned out to be 93%. This compound came in with an Activity in data set [2] of 68%. Moreover, the viability at 3 µM in data set [3] was 67%. Moreover, the Drug metabolism in data set [4] was found to be 34 pmol/min.

In the case of `Cl.Fc1ccc(Cc2ccc(N3CCN(CCCOc4ccc5ncccc5c4)CC3)cc2)cc1`, the activity at 10 min, 10 µM in data set [1] is 94%. The compound also displayed an Activity in data set [2] of 52%. For the same compound, in data set [3], the viability at 3 µM was found to be 75%. In data set [4], the Drug metabolism turned out to be 47 pmol/min.

Take `Cc1cc(S(N)(=O)=O)c(C)c(C)c1OCC(F)CN1CCN(c2ccc(Cc3ccc(F)cc3)cc2)CC1` (stereo unspecified): the activity at 10 min, 10 µM in data set [1] was 92%. For the same compound, the Activity in data set [2] was determined as 172%. Besides, the viability at 3 µM in data set [3] was 106%. Moreover, the Drug metabolism in data set [4] was found to be 32 pmol/min.

For the compound `Cc1cc(C)c(C)c(OCC(F)CN2CCN(c3ccc(Cc4ccc(F)cc4)cc3)CC2)c1.Cl.Cl` (stereo unspecified), the activity at 10 min, 10 µM in data set [1] came to 107%. Besides, the Activity in data set [2] worked out at 75%. Further, in data set [3], the viability at 3 µM amounted to 60%. Also, the Drug metabolism in data set [4] is given as 25 pmol/min.

With `OC(COc1ccc2ncccc2c1)CN1CCN(c2ccc(Cc3ccc(F)cc3)cc2)CC1` (stereo unspecified), the activity at 10 min, 10 µM in data set [1] was determined as 70%. Also, in data set [2], the Activity was determined as 36%. For the same compound, the viability at 3 µM in data set [3] turned out to be 64%. Besides, in data set [4], the Drug metabolism came out at 122 pmol/min.

With `O=C1CCc2cc(OCC(O)CN3CCN(c4ccc(Cc5ccc(F)cc5)cc4)CC3)ccc2N1` (stereo unspecified), the activity at 10 min, 10 µM in data set [1] was determined as 88%. Moreover, the Activity in data set [2] came out at 32%. Further, the viability at 3 µM in data set [3] was 33%. Further, in data set [4], the Drug metabolism was determined as 27 pmol/min.

Consider `Cc1cc(OC[C@@H](F)CN2CCN(c3ccc(Cc4ccc(F)cc4)cc3)CC2)cc(C)n1.Cl`, for which, in data set [1], the activity at 10 min, 10 µM stood at 80%. This compound yielded an Activity in data set [2] of 68%. In addition, in data set [3], the viability at 3 µM came out at 96%. For the same compound, the Drug metabolism in data set [4] was determined as 37 pmol/min.

Consider `Cc1cc(S(N)(=O)=O)ccc1OCC(F)CN1CCN(c2ccc(Cc3ccc(F)cc3)cc2)CC1` (stereo unspecified), for which the activity at 10 min, 10 µM in data set [1] turned out to be 108%. The compound further had an Activity in data set [2] of 114%. Also, the viability at 3 µM in data set [3] came to 105%. Also, the Drug metabolism in data set [4] was found to be 17 pmol/min.

Regarding `Cc1cc(OC[C@H](F)CN2CCN(c3ccc(Cc4ccc(F)cc4)cc3)CC2)cc(C)n1.Cl`, the activity at 10 min, 10 µM in data set [1] is 83%. In data set [2], this compound came in with an Activity of 78%. Further, the viability at 3 µM in data set [3] amounted to 93%. In addition, the Drug metabolism in data set [4] is 71 pmol/min.

In the case of `Cc1cc(OCC(F)CN2CCN(c3ccc(Cc4ccc(F)cc4)cc3)CC2)c(C)c(C)c1N.Cl.Cl.Cl` (stereo unspecified), in data set [1], the activity at 10 min, 10 µM is 75%. The compound also returned an Activity in data set [2] of 126%. Moreover, in data set [3], the viability at 3 µM was 94%. For the same compound, the Drug metabolism in data set [4] is 106 pmol/min.

Regarding `NS(=O)(=O)c1ccc(OCC(F)CN2CCN(c3ccc(Cc4ccc(F)cc4)cc3)CC2)cc1` (stereo unspecified), the activity at 10 min, 10 µM in data set [1] turned out to be 99%. Moreover, in data set [2], the Activity is 71%. In addition, the viability at 3 µM in data set [3] amounted to 88%. The Drug metabolism in data set [4] is 12 pmol/min.

As for `OC(COc1ccc2[nH]ccc2c1)CN1CCN(c2ccc(Cc3ccc(F)cc3)cc2)CC1` (stereo unspecified), in data set [1], the activity at 10 min, 10 µM was found to be 59%. The Activity in data set [2] worked out at 30%. Also, in data set [3], the viability at 3 µM turned out to be 43%. The Drug metabolism in data set [4] stood at 79 pmol/min.

Compound `Cl.OC(COc1ccccc1)CN1CCN(c2ccc(Cc3ccc(F)cc3)cc2)CC1` (stereo unspecified) returned an Activity in data set [2] of 8%. Further, the viability at 3 µM in data set [3] was 43%. For the same compound, in data set [4], the Drug metabolism stood at 28 pmol/min.

In the case of `CS(=O)(=O)O.CS(=O)(=O)O.Cc1cc(OCC(O)CN2CCN(c3ccc(Cc4ccc(F)cc4)cc3)CC2)c(C)c(C)c1N` (stereo unspecified), the activity at 10 min, 10 µM in data set [1] was 57%. For the same compound, the viability at 3 µM in data set [5] is 82%. Besides, in data set [4], the Drug metabolism turned out to be 153 pmol/min. Further, the “fold change (FC)” value in data set [6] was 5.1.
